Test results: patent publication US20090233796A1, “HERBICIDAL COMPOSITION” (SYNGENTA CROP PROTECTION, INC., priority 2004, published 2009)

Experiments:
Format in all cases: in vivo
[1] = tested on: CYNODON DACTYLON; assay: Compound (A) with glyphosate, weed plots; conditions: 840 g/ha; 82 DAA; No. 2.1
Excerpt: (§1) The compositions were formulated as an emulsifyable concentrate (EC).
(§2) The results in the table under each application are the percentage of the plants that were killed.

[2] = tested on: DIGITARIA SANGUINALIS; assay: Compound (A) with glyphosate, weed plots; conditions: 840 g/ha; 52 DAA; No. 2.2
Excerpt: as §1, §2

[3] = tested on: HORDEUM PUSILLUM; assay: Compound (A) with glyphosate, weed plots; conditions: 840 g/ha; 13 DAA; No. 2.6
Excerpt: as §1, §2

[4] = tested on: ABUTILON THEOPHRASTI; assay: Compound (A) with nicosulfuron, weed plots; conditions: 35 g/ha; 27 DAA; No. 3.13
Experimental: (§3) In these tests, various weeds were treated with nicosulfuron alone at a rate equivalent to 35 g per hectare, […] and Compound (A) at rates equivalent to the sum of these. The compositions were formulated as an emulsifyable concentrate (EC).
as §2

[5] = tested on: AMBROSIA TRIFIDA; assay: Compound (A) with nicosulfuron, weed plots; conditions: 35 g/ha; 28 DAA; No. 3.15
Experimental: as §3, §2

[6] = tested on: BRACHIARIA PLATYPHYLLA; assay: Compound (A) with nicosulfuron, weed plots; conditions: 35 g/ha
Experimental: as §3, §2

[7] = tested on: CYPERUS ESCULENTUS; assay: Compound (A) with nicosulfuron, weed plots; conditions: 35 g/ha
Experimental: as §3, §2

[8] = tested on: C[…].; assay: Compound (A) with nicosulfuron, weed plots; conditions: 35 g/ha; 5 DAA; No. 3.8
Experimental: as §3, §2

[9] = tested on: DIGITARIA SANGUINALIS; assay: Compound (A) with nicosulfuron, weed plots; conditions: 35 g/ha
Experimental: as §3, §2

[10] = tested on: IPOMOEA SP.; assay: Compound (A) with nicosulfuron, weed plots; conditions: 35 g/ha; 5 DAA; No. 3.10
Experimental: as §3, §2

[11] = tested on: SESBANIA EXALTATA; assay: Compound (A) with nicosulfuron, weed plots; conditions: 35 g/ha
Experimental: as §3, §2

[12] = tested on: SETARIA SP.; assay: Compound (A) with nicosulfuron, weed plots; conditions: 35 g/ha; 21 DAA; No. 3.4
Experimental: as §3, §2

[13] = tested on: SETARIA VIRIDIS; assay: Compound (A) with nicosulfuron, weed plots; conditions: 35 g/ha; 4 DAA; No. 3.11
Experimental: as §3, §2

[14] = tested on: […]; assay: Compound (A) with nicosulfuron, weed plots; conditions: 35 g/ha; 58 DAA; No. 3.12
Experimental: as §3, §2

[15] = tested on: COMMELINA SP.; assay: Compound (A) with nicosulfuron, weed plots; conditions: 35 g/ha
Excerpt: In these tests, […] and Compound (A) at rates equivalent to the sum of these. The compositions were formulated as an emulsifyable concentrate (EC).
as §2

[16] = tested on: Euphorbia; assay: Compound (A) with primisulfuron, weed plots; conditions: 45 DAA, Trial 3.20
Excerpt: (§4) In these tests, […] and Compound (A) at rates equivalent to the sum of these. The compositions were formulated as an emulsifiable concentrate (EC).
(§5) The results in the tables under each application are the percentage of the plants that were killed.

[17] = tested on: Ipomoea; assay: Compound (A) with primisulfuron, weed plots; conditions: 44 DAA, Trial 3.21
Experimental: In these tests, various weeds were treated with primisulfuron alone at a rate equivalent to 35 g per hectare, […] and Compound (A) at rates equivalent to the sum of these. The compositions were formulated as an emulsifiable concentrate (EC).
as §5

[18] = tested on: Corn; assay: Compound (A) with prosulfuron, weed plots; conditions: 13 DAA, No. 3.26
Excerpt: as §4, §5

[19] = tested on: Galium; assay: Compound (A) with prosulfuron, weed plots; conditions: 13 DAA, No. 3.24
Excerpt: as §4, §5

[20] = tested on: Brachiaria; assay: Compound (A) with prosulfuron, weed plots; conditions: 13 DAA, No. 3.27
Experimental: (§6) In these tests, various weeds were treated with prosulfinuron alone at a rate equivalent to 35 g per hectare, […] and Compound (A) at rates equivalent to the sum of these. The compositions were formulated as an emulsifiable concentrate (EC).
as §5

[21] = tested on: Euphorbia; assay: Compound (A) with prosulfuron, weed plots; conditions: 13 DAA, No. 3.28
Experimental: as §6, §5

[22] = tested on: Rice; assay: Compound (A) with prosulfuron, weed plots; conditions: 13 DAA, No. 3.29
Experimental: as §6, §5

[23] = tested on: Veronica; assay: Compound (A) with prosulfuron, weed plots; conditions: 13 DAA, No. 3.25
Experimental: as §6, §5

[24] = tested on: Wheat; assay: Compound (A) with prosulfuron, weed plots; conditions: 13 DAA, No. 3.30
Experimental: as §6, §5

[25] = tested on: ABUTILON THEOPHRASTI; assay: Compound (A) with S-metolachlor, weed plots; conditions: 1420 g/ha
Excerpt: […] The compositions were formulated as an emulsifyable concentrate (EC).
as §2

[26] = tested on: AMBROSIA ARTEMISIIFOLIA; assay: Compound (A) with S-metolachlor, weed plots; conditions: 1420 g/ha
Experimental: (§7) In these tests, various weeds were treated with S-metolachlor (SMOC) alone at an application rate equivalent to 1420 g per hectare, Compound (A) alone at rates equivalent to 20 g per hectare and […] and with mixtures of S-metolachlor and the Compound (A) at rates equivalent to the sum of these. The compositions were formulated as an emulsifyable concentrate (EC).
as §2

[27] = tested on: AMBROSIA TRIFIDA; assay: Compound (A) with S-metolachlor, weed plots; conditions: 1420 g/ha
Experimental: as §7, §2

[28] = tested on: C[…]; assay: Compound (A) with S-metolachlor, weed plots; conditions: 1420 g/ha
Experimental: as §7, §2

[29] = tested on: E[…]-GALLI; assay: Compound (A) with S-metolachlor, weed plots; conditions: 1420 g/ha; 28 DAA; Trial 4.1
Experimental: as §7, §2

[30] = tested on: IPOMOEA SP.; assay: Compound (A) with S-metolachlor, weed plots; conditions: 1420 g/ha
Experimental: as §7, §2

[31] = tested on: POLYGONUM PENSYLVANICUM; assay: Compound (A) with S-metolachlor, weed plots; conditions: 1420 g/ha; 56 DAA; Trial 4.14
Experimental: as §7, §2

[32] = tested on: SESBANIA EXALTATA; assay: Compound (A) with S-metolachlor, weed plots; conditions: 1420 g/ha; 56 DAA; Trial 4.2
Experimental: as §7, §2

[33] = tested on: XANTHIUM STRUMARIUM; assay: Compound (A) with S-metolachlor, weed plots; conditions: 1420 g/ha
Experimental: as §7, §2

[34] = tested on: Cyperus; assay: Compound (A) with sulcotrione, weed plots; conditions: 14 DAA, Trial 5.1
Experimental: In these tests, various weeds were treated with sulcotrione alone at an application rate equivalent to 1420 g per hectare, […] and Compound (A) at rates equivalent to the sum of these. The compositions were formulated as an emulsifyable concentrate (EC).
as §2

O=C(O)CNCP(=O)(O)O [Glyphosate, glyphosate, reference compound]
percentage of the plants that were killed [1]: 0% | percentage of the plants that were killed [2]: 0% | percentage of the plants that were killed [3]: 30%

COc1cc(OC)nc(NC(=O)NS(=O)(=O)c2ncccc2C(=O)N(C)C)n1 [Nicosulfuron, nicosulfuron, reference compound]
percentage of the plants that were killed [4]: 50% | percentage of the plants that were killed [5]: 0% | percentage of the plants that were killed ([6]; 24 DAA, No. 3.16): 35% | percentage of the plants that were killed ([6]; 30 DAA, No. 3.17): 30% | percentage of the plants that were killed ([7]; 7 DAA, No. 3.7): 0% | percentage of the plants that were killed ([7]; 12 DAA, No. 3.9): 0% | percentage of the plants that were killed [8]: 50% | percentage of the plants that were killed ([9]; 4 DAA, No. 3.6): 10% | percentage of the plants that were killed ([9]; 5 DAA, No. 3.14): 0% | percentage of the plants that were killed ([9]; 21 DAA, No. 3.5): 70% | percentage of the plants that were killed [10]: 0% | percentage of the plants that were killed ([11]; 44 DAA, No. 3.3): 10% | percentage of the plants that were killed ([11]; 45 DAA, No. 3.2): 0% | percentage of the plants that were killed [12]: 70% | percentage of the plants that were killed [13]: 20% | percentage of the plants that were killed [14]: 0% | percentage of the plants that were killed ([15]; 10 DAA, No. 3.18): 0% | percentage of the plants that were killed ([15]; 17 DAA, No. 3.19): 0%

O=C(Nc1nc(OC(F)F)cc(OC(F)F)n1)NS(=O)(=O)c1ccccc1C(=O)O [Primisulfuron, primisulfuron, reference compound]
percentage of the plants that were killed ([16]; 7.5 g/ha): 10% | percentage of the plants that were killed ([16]; 15 g/ha): 30% | percentage of the plants that were killed ([16]; 30 g/ha): 50% | percentage of the plants that were killed ([17]; 7.5 g/ha): 0% | percentage of the plants that were killed ([17]; 15 g/ha): 20% | percentage of the plants that were killed ([17]; 30 g/ha): 25%

COc1nc(C)nc(NC(=O)NS(=O)(=O)c2ccccc2CCC(F)(F)F)n1 [Prosulfuron, prosulfuron, reference compound]
percentage of the plants that were killed ([18]; 7.5 g/ha): 0% | percentage of the plants that were killed ([18]; 15 g/ha): 0% | percentage of the plants that were killed ([18]; 30 g/ha): 0% | percentage of the plants that were killed ([19]; 7.5 g/ha): 30% | percentage of the plants that were killed ([19]; 15 g/ha): 40% | percentage of the plants that were killed ([19]; 30 g/ha): 70% | percentage of the plants that were killed ([20]; 7.5 g/ha): 0% | percentage of the plants that were killed ([20]; 15 g/ha): 0% | percentage of the plants that were killed ([20]; 30 g/ha): 0% | percentage of the plants that were killed ([21]; 7.5 g/ha): 20% | percentage of the plants that were killed ([21]; 15 g/ha): 20% | percentage of the plants that were killed ([21]; 30 g/ha): 30% | percentage of the plants that were killed ([22]; 7.5 g/ha): 0% | percentage of the plants that were killed ([22]; 15 g/ha): 0% | percentage of the plants that were killed ([22]; 30 g/ha): 0% | percentage of the plants that were killed ([23]; 7.5 g/ha): 0% | percentage of the plants that were killed ([23]; 15 g/ha): 0% | percentage of the plants that were killed ([23]; 30 g/ha): 15% | percentage of the plants that were killed ([24]; 7.5 g/ha): 0% | percentage of the plants that were killed ([24]; 15 g/ha): 0% | percentage of the plants that were killed ([24]; 30 g/ha): 0%

CCc1cccc(C)c1N(C(=O)CCl)[C@@H](C)COC [SMOC, S-metolachlor, reference compound]
percentage of the plants that were killed ([25]; 15 DAA, Trial 4.12): 65% | percentage of the plants that were killed ([25]; 23 DAA, Trial 4.3): 13% | percentage of the plants that were killed ([25]; 38 DAA, Trial 4.4): 0% | percentage of the plants that were killed ([25]; 56 DAA, Trial 4.13): 0% | percentage of the plants that were killed ([26]; 25 DAA, Trial 4.7): 30% | percentage of the plants that were killed ([26]; 49 DAA, Trial 4.8): 30% | percentage of the plants that were killed ([27]; 8 DAA, Trial 4.16): 25% | percentage of the plants that were killed ([27]; 42 DAA, Trial 4.15): 25% | percentage of the plants that were killed ([28]; 26 DAA, Trial 4.5): 0% | percentage of the plants that were killed ([28]; 54 DAA, Trial 4.6): 0% | percentage of the plants that were killed ([28]; 56 DAA, Trial 4.11): 0% | percentage of the plants that were killed [29]: 75% | percentage of the plants that were killed ([30]; 25 DAA, Trial 4.9): 0% | percentage of the plants that were killed ([30]; 49 DAA, Trial 4.10): 0% | percentage of the plants that were killed [31]: 0% | percentage of the plants that were killed [32]: 20% | percentage of the plants that were killed ([33]; 26 DAA, Trial 4.17): 38% | percentage of the plants that were killed ([33]; 42 DAA, Trial 4.18): 30%

CS(=O)(=O)c1ccc(C(=O)C2C(=O)CCCC2=O)c(Cl)c1 [Sulcotrione, sulcotrione]
percentage of the plants that were killed ([34]; 50 g/ha): 25% | percentage of the plants that were killed ([34]; 100 g/ha): 30% | percentage of the plants that were killed ([34]; 200 g/ha): 30%
